Drawing on PubChem BioAssay AID485340 (Southern Research Specialized Biocontainment Screening …, 2010), this text covers IC50 for nine compounds.

Activity calls are given as the source filed them. No rule for the calls is given here.

This assay deals with M. tuberculosis growth, meropenem IC50 shift with compound. Kind of assay: confirmation, meropenem IC50 shift (AID 485340).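 Also: growth read after one week of culture plus overnight Alamar Blue.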
The mark [1] stands for this setting: compound alone IC50 vs Mtb, compound dose (near its own IC50) 1.18 µM.
Setting [2] is: compound dose (near its own IC50) 1.18 µM.
[3] abbreviates: compound alone IC50 vs Mtb, compound dose (near its own IC50) 2.35 µM.
[4] abbreviates: compound dose (near its own IC50) 2.35 µM.

In the case of `COC(=O)c1sc(-c2ccc(C(C)(C)C)cc2)cc1NC(=O)CCC(=O)O`, the IC50 (commonly the concentration that inhibits the measured activity by half) by setting is: under setting [1], 1370 nM; under setting [2], 7190 nM (inactive).
On to `COC(=O)c1c(C)n(-c2ccccc2)c2ccc(O)cc12`, for which the IC50 runs as follows: under setting [1], 1530 nM; under setting [2], 6070 nM (inactive).
Consider `CCSc1nnc(NC(=O)C2Cc3ccccc3CN2C(=O)c2ccco2)s1` (stereo not drawn), for which the IC50 is, setting by setting: under setting [3], 2690 nM; under setting [4], 6220 nM (inactive).
Consider `O=C(COC(=O)C1CC1)c1c[nH]c2ccccc12`, for which the IC50 by setting is: under setting [1], 999 nM; under setting [2], 4650 nM (inactive).
As for `CCOC(=O)Cn1c(=NC(=O)C2CC2)sc2c(C)cc(C)cc21`, the IC50 is 9840 nM (compound alone IC50 vs Mtb, compound dose (near its own IC50) 9.38 µM) and 3540 nM (inactive) (compound dose (near its own IC50) 9.38 µM).
For the compound `NC(=S)N/N=C/c1ccc(/C=N/NC(N)=S)cc1`, the half-inhibitory concentration (IC50) reads like this: under setting [3], 2500 nM; under setting [4], 4040 nM (inactive).
For `O=c1c(O)c(-c2ccc3c(c2)OCO3)oc2ccccc12` the same measures were 2120 nM and 7400 nM (inactive).
`Cc1ccc2[nH]c(O)c(N=Nc3nc4ccccc4s3)c2c1`: the IC50 reads like this: (compound alone IC50 vs Mtb, compound dose (near its own IC50) 4.69 µM) 6760 nM; (compound dose (near its own IC50) 4.69 µM) 5100 nM (inactive).
On to `c1ccc(Nc2ncnc3c2oc2ccccc23)cc1`, for which the half-inhibitory concentration (IC50) runs as follows: under setting [3], 2000 nM; under setting [4], 6760 nM (inactive).
